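Grown in 96-well plates, cells were treated for 48 hours with each compound at five concentrations. Insufficient inhibition: endpoint recorded as highest concentration tested. The concentration for 50% growth inhibition is given as GI50.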 Active and inactive are the calls of the source. Cut-off read from the data, not from the text of the source: active = GI50 up to about 1.1 µM and inactive = higher.
Key:
Test in all cases: DTP human tumour cell line panel, 48 h
PC-3 = test system: PC-3
BT-549 = test system: BT-549
T47D = test system: T47D
SF-295 = test system: SF-295
MDA-MB-231 = test system: MDA-MB-231
OVCAR-3 = test system: OVCAR-3
SK-MEL-5 = test system: SK-MEL-5
NCI-H23 = test system: NCI-H23
A549 = test system: A549
MDA-MB-435 = test system: MDA-MB-435
NCI/ADR-RES = test system: NCI/ADR-RES
SNB-75 = test system: SNB-75
SN12C = test system: SN12C
HCC 2998 = test system: HCC 2998
NCI-H522 = test system: NCI-H522
M14 = test system: M14
HOP-92 = test system: HOP-92
SK-OV-3 = test system: SK-OV-3
SR = test system: SR
HL-60 = test system: HL-60

Structure (SMILES) | GI50 (PC-3) | GI50 (BT-549) | GI50 (T47D) | GI50 (SF-295) | GI50 (MDA-MB-231) | GI50 (OVCAR-3) | GI50 (SK-MEL-5) | GI50 (NCI-H23) | GI50 (A549) | GI50 (MDA-MB-435) | GI50 (NCI/ADR-RES) | GI50 (SNB-75) | GI50 (SN12C) | GI50 (HCC 2998) | GI50 (NCI-H522) | GI50 (M14) | GI50 (HOP-92) | GI50 (SK-OV-3) | GI50 (SR) | GI50 (HL-60)
C=C(C)C1CC2=C(O1)C(=O)c1cccc(O)c1C2=O (stereo not given) | 1.69 µM (inactive) | 0.406 µM (active) | 1.23 µM (inactive) | 1.36 µM (inactive) | 1.82 µM (inactive) | 0.214 µM (active) | 0.144 µM (active) | 0.244 µM (active) | 2.47 µM (inactive) | 0.129 µM (active) | 1.05 µM (active) | 2.29 µM (inactive) | 1.21 µM (inactive) | 1.99 µM (inactive) | 0.378 µM (active) | 0.951 µM (active) | 0.604 µM (active) | 1.51 µM (inactive) |  | 
c1cc2c(cc1C(N1CCNCC1)N1CCNCC1)OCO2 | > 100 µM (inactive) | > 100 µM (inactive) | > 100 µM (inactive) | > 100 µM (inactive) | > 100 µM (inactive) | > 100 µM (inactive) | > 100 µM (inactive) | > 100 µM (inactive) | > 100 µM (inactive) | > 100 µM (inactive) | > 100 µM (inactive) | > 100 µM (inactive) | > 100 µM (inactive) |  | > 100 µM (inactive) | > 100 µM (inactive) | > 100 µM (inactive) | > 100 µM (inactive) | 9.64 µM (inactive) | 
O=C(/C=C/C(Cl)(Cl)Cl)Nc1ccc(Cl)cc1 | 12.5 µM (inactive) | 17.2 µM (inactive) | 2.15 µM (inactive) | 12.4 µM (inactive) | 2.49 µM (inactive) | 6.89 µM (inactive) | 11.1 µM (inactive) | 3.36 µM (inactive) | 3.99 µM (inactive) | 3.74 µM (inactive) | 2.45 µM (inactive) | 3.69 µM (inactive) | 7.24 µM (inactive) | 6.44 µM (inactive) | 0.514 µM (active) | 4.62 µM (inactive) | 2.12 µM (inactive) | 18.9 µM (inactive) |  | 1.48 µM (inactive)
O=c1[nH]nc(-c2ccc([N+](=O)[O-])cc2)[nH]1 | > 100 µM (inactive) | 19.1 µM (inactive) | > 100 µM (inactive) | > 100 µM (inactive) |  | > 100 µM (inactive) |  | > 100 µM (inactive) | > 100 µM (inactive) | > 100 µM (inactive) | > 100 µM (inactive) | > 100 µM (inactive) | > 100 µM (inactive) | > 100 µM (inactive) | > 100 µM (inactive) | > 100 µM (inactive) | > 100 µM (inactive) |  | > 100 µM (inactive) | > 100 µM (inactive)
C[n+]1c2ccccc2n2c3ccccc3c(NCCc3ccccn3)c(C#N)c21 | 2.55 µM (inactive) | 5.89 µM (inactive) | 2.36 µM (inactive) | 2.32 µM (inactive) | 1.42 µM (inactive) | 2.34 µM (inactive) | 2.9 µM (inactive) | 2.56 µM (inactive) | 3.62 µM (inactive) | 1.47 µM (inactive) | 13.8 µM (inactive) | 1.38 µM (inactive) | 1.23 µM (inactive) |  | 0.828 µM (active) | 2.38 µM (inactive) | 5.97 µM (inactive) | 3.4 µM (inactive) |  | 3.13 µM (inactive)
N#Cc1c2c(c(N3CCOCC3)n3c1nc1ccccc13)CCCC2 | 21.9 µM (inactive) | 40.1 µM (inactive) | 19.2 µM (inactive) | 17.9 µM (inactive) | 21.3 µM (inactive) | 18.8 µM (inactive) | 18.7 µM (inactive) | 19.5 µM (inactive) | 23.8 µM (inactive) | 20.2 µM (inactive) | 17.9 µM (inactive) |  | 19.9 µM (inactive) | 21.8 µM (inactive) | 16.3 µM (inactive) | 21.5 µM (inactive) | 17.1 µM (inactive) | 22.6 µM (inactive) |  | 13.8 µM (inactive)
CN(C)CCCNc1ccc([N+](=O)[O-])c2nc3ccccc3c(N)c12 | 0.394 µM (active) | 1.48 µM (inactive) | 0.914 µM (active) | 0.382 µM (active) | 0.598 µM (active) | 0.63 µM (active) | 1.21 µM (inactive) | 0.9 µM (active) | 0.512 µM (active) | 0.718 µM (active) | 0.397 µM (active) |  | 0.771 µM (active) |  |  | 0.7 µM (active) | 0.516 µM (active) | 0.228 µM (active) | 0.23 µM (active) | 0.459 µM (active)
CCOC(=O)NNC(=O)C1CSC(c2ccccc2)N1C(C)=O (stereo not given) | > 100 µM (inactive) | > 100 µM (inactive) | > 100 µM (inactive) | > 100 µM (inactive) | > 100 µM (inactive) | > 100 µM (inactive) | > 100 µM (inactive) | > 100 µM (inactive) | > 100 µM (inactive) | > 100 µM (inactive) | > 100 µM (inactive) | > 100 µM (inactive) | > 100 µM (inactive) | > 100 µM (inactive) | > 100 µM (inactive) | > 100 µM (inactive) | 82.2 µM (inactive) | > 100 µM (inactive) |  | > 100 µM (inactive)
Brc1ccc(-c2nc(-c3ccc(Br)cc3)n(-c3ccccc3)n2)cc1 | > 100 µM (inactive) | > 100 µM (inactive) | 12.9 µM (inactive) | > 100 µM (inactive) | > 100 µM (inactive) | > 100 µM (inactive) | > 100 µM (inactive) | > 100 µM (inactive) | 61.8 µM (inactive) | 46.7 µM (inactive) | > 100 µM (inactive) | 54.3 µM (inactive) | > 100 µM (inactive) |  | 39 µM (inactive) | > 100 µM (inactive) | > 100 µM (inactive) | > 100 µM (inactive) |  | 34.8 µM (inactive)
Cc1nc2c(=O)[nH]ncc2[nH]1 | > 100 µM (inactive) | > 100 µM (inactive) | > 100 µM (inactive) | > 100 µM (inactive) | > 100 µM (inactive) | > 100 µM (inactive) | > 100 µM (inactive) | > 100 µM (inactive) | > 100 µM (inactive) | > 100 µM (inactive) | > 100 µM (inactive) | 0.968 µM (active) | > 100 µM (inactive) |  |  | > 100 µM (inactive) |  |  | > 100 µM (inactive) | 64 µM (inactive)
COc1c(OC)c(OC)c(C(=O)/C=C/c2ccccc2)c(OC)c1OC | 8.67 µM (inactive) | 3.79 µM (inactive) | 9.02 µM (inactive) | 12.4 µM (inactive) | 14.5 µM (inactive) | 9.29 µM (inactive) | 13.5 µM (inactive) | 11 µM (inactive) | 12.5 µM (inactive) | 5.06 µM (inactive) | 11.5 µM (inactive) | 8.91 µM (inactive) | 10.6 µM (inactive) | 14.7 µM (inactive) | 3.12 µM (inactive) | 12 µM (inactive) | 3.13 µM (inactive) | 12.3 µM (inactive) |  | 7.11 µM (inactive)
CN1CCN(/C(N)=C(\C#N)C(=O)Nc2ccccc2)CC1 | > 100 µM (inactive) | > 100 µM (inactive) | > 100 µM (inactive) | > 100 µM (inactive) |  | > 100 µM (inactive) | > 100 µM (inactive) | > 100 µM (inactive) | > 100 µM (inactive) | > 100 µM (inactive) | > 100 µM (inactive) | > 100 µM (inactive) | > 100 µM (inactive) | > 100 µM (inactive) |  | > 100 µM (inactive) | > 100 µM (inactive) | > 100 µM (inactive) | > 100 µM (inactive) | 
CN1CCN(C(=S)N(C)C(=O)c2cccs2)CC1 |  | > 100 µM (inactive) | > 100 µM (inactive) | > 100 µM (inactive) | > 100 µM (inactive) | > 100 µM (inactive) | > 100 µM (inactive) | > 100 µM (inactive) | > 100 µM (inactive) | > 100 µM (inactive) |  |  | > 100 µM (inactive) | > 100 µM (inactive) | > 100 µM (inactive) | > 100 µM (inactive) | > 100 µM (inactive) |  | > 100 µM (inactive) | 
CC1OC2(CC(OCc3ccccc3)C1OCc1ccccc1)OCCO2 (stereo not given) | 59.8 µM (inactive) | 59 µM (inactive) |  | 51.1 µM (inactive) | 37 µM (inactive) | > 100 µM (inactive) | 33 µM (inactive) | 35 µM (inactive) | 50.7 µM (inactive) | 57 µM (inactive) | 39.1 µM (inactive) |  | 21.4 µM (inactive) | 71.8 µM (inactive) | 31.2 µM (inactive) | 45.7 µM (inactive) | 49.9 µM (inactive) | > 100 µM (inactive) | 21.1 µM (inactive) | 20 µM (inactive)
CCN(CC)CCNC(=O)c1ccc(C)c(OCc2ccccc2)c1[N+](=O)[O-] | 45.3 µM (inactive) | > 35.8 µM (inactive) | 20.7 µM (inactive) | 24.5 µM (inactive) | 35.6 µM (inactive) | 43.9 µM (inactive) | 16.3 µM (inactive) | 54.3 µM (inactive) | 44.8 µM (inactive) |  | 33.4 µM (inactive) | 18 µM (inactive) | 74.3 µM (inactive) | 28.8 µM (inactive) | 27 µM (inactive) | 17.8 µM (inactive) | 24.9 µM (inactive) | 34.2 µM (inactive) | 27.7 µM (inactive) | 19.5 µM (inactive)
COc1ccc(OC)c(C#Cc2ccc(OC)c(C(=O)NCCc3ccc(F)cc3)c2)c1 | 5.14 µM (inactive) | > 100 µM (inactive) | 2.86 µM (inactive) | 4.67 µM (inactive) |  |  | 4.42 µM (inactive) | > 100 µM (inactive) | 7.55 µM (inactive) | 1.23 µM (inactive) | 7.8 µM (inactive) |  |  | 2.27 µM (inactive) | 2.25 µM (inactive) | 5.53 µM (inactive) |  |  | 0.783 µM (active) | 5.13 µM (inactive)
